What was measured:
KIRL1 mRNA = KIRL1 mRNA relative to GAPDH by RT-PCR in CD4+ T cells from 5-azaC treated splenocytes; format: cell-based, murine; settings: ConA-stimulated splenocytes, n=4, p=0.038
Protocol: FIGS. 2A-B. (A) Murine splenocytes were stimulated with […], treated or not with 5-azaC, then KirL1 mRNA was measured in CD4^+ T cells relative to GAPDH by RT-PCR. (B) Double transgenic mice were given Dox or not in their drinking water, then KirL1 mRNA measured in CD4+ splenocytes as in panel A.
(§1) To test if the mouse T cell KIR genes are also activated by DNA methylation inhibition, murine splenocytes were stimulated with ConA, treated with 5-azaC, and KIRL1 mRNA measured relative to GAPDH by RT-PCR in CD4+ T cells bead purified by negative selection to remove NK and other non-CD4+ T cells.

CD4^+KIR^+NK1.1^− cells [1] = assay: Flow cytometry (6G10) of KIR on murine T cells treated with 5-azaC; format: cell-based
CD3^+CD4^+CD28^+ T cells = assay: KIR and CD11a expression on PHA-stimulated, 5-azaC treated PBMC (flow cytometry); format: cell-based, human
Protocol: FIGS. 11A-D. 5-Azacytidine treatment of PHA-stimulated PBMC induces the expression of KIR proteins on a subset of CD4^+CD28^+CD11a^hi T cells. PBMC were stimulated for 18-24 hrs with PHA followed by treatment with 2.5 μM 5-azacytidine or saline for 72 hrs. The cells were then stained with fluorochrome-conjugated antibodies to methylation-sensitive gene products, fixed and analyzed by flow cytometry as described in Methods. Gating was established to select CD3^+CD4^+CD28^+ T cells. The CD3^+CD4^+CD28^+ T cells were then analyzed for CD11a and KIR using a cocktail of 5 PE-conjugated anti-KIR antibodies and imaged on a FACS Synergy flow cytometer. (A), Untreated T cells. (B), 5-azaC treated T cells. (C), 5-azaC treated PBMC stained only with the cocktail of anti-KIR antibodies. (D), 5-azaC treated T cells stained with antibodies to CD3, CD4, CD28, CD11a, CD70 and CD40L but not KIR. The figure shown is representative of 9 separate cultures.
The expression of methylation-sensitive genes was analyzed in 5-azaC treated cells from healthy women. PBMCs from a healthy […] were stimulated with PHA then cultured with or without 5-azaC. Seventy-two hours later the cells were washed, stained with fluorochromeconjugated antibodies to CD3, CD4, CD28, CD11a, CD70 and CD40L with and without a “cocktail” of PE conjugated antibodies to 5 distinct KIR proteins then analyzed by flow cytometry as outlined in FIG. 10. […]
In the absence of treatment with the demethylating agent 5-azaC very few KIR+ cells were observed (FIG. 11A). […] Further, CD11a expression on the majority (>70%) of the KIR^+CD3^+CD4^+CD28^+ cells treated with 5-azaC (FIG. 11B, rectangle) was nearly twice that of the corresponding KIR− T cells (FIG. 11B, circle) from the same cultures (median fluorescence intensity 2298+/−748 SD, versus 1394+/−572, respectively, n=9 analyzed in 7 different experiments, p<0.001). […]

CD4^+KIR^+NK1.1^− cells [2] = assay: Flow cytometry (6G10) of KIR on CD4+ splenocytes of tet-on dnMEK transgenic mice receiving dox; format: in vivo
Protocol: FIGS. 3A-B.) Double transgenic mice were given Dox (B) or not (A) in their drinking water, then KirL1 expression was measured on CD4+ splenocytes by flow cytometry.
as §1

[3] = system: CD4^+KIRL1^+CD11a^hiCD40L^+ subset; assay: Multicolor flow cytometry of splenocytes of SJL mice given dox for 6 weeks; format: in vivo; settings: dox 6 weeks; controls 0.007%
Source text: SJL mice were given dox for 6 weeks, sacrificed, then splenocytes stained with Pacific Blue-CD3; FITC-CD8; PE-CD40L; PE-Cy5-CD4; Avidin-APC-Cy7/biotin-KIRL1; PERCP-Cy5.5-CD11a. Mice receiving dox developed a CD4^+KIRL1^+CD11a^hiCD40L^+ subset that resembles the human lupus subset shown in FIG. 1, and represented 1.09% of the total CD11a+ cells, while controls had only 0.007% CD4^+KIRL1^+CD11a^hiCD40L^+ cells.

[4] = lupus patients; cited from earlier work

Nc1ncn([C@@H]2O[C@H](CO)[C@@H](O)[C@H]2O)c(=O)n1 [5-azaC, 5-azacytidine]
KIRL1 mRNA relative to GAPDH (KIRL1 mRNA): overexpressed KIRL1 mRNA | increase in CD4^+KIR^+NK1.1^− cells (CD4^+KIR^+NK1.1^− cells [1]): 3.1 fold | numbers of KIR+ cells (CD3^+CD4^+CD28^+ T cells; 2.5 μM 5-azaC 72 hrs after PHA): increases the numbers of KIR+ cells | CD11a median fluorescence intensity on KIR^+CD3^+CD4^+CD28^+ cells (CD3^+CD4^+CD28^+ T cells; 5-azaC treated cultures, SD, n=9, p<0.001 vs KIR− cells): 2298+/−748 | CD11a median fluorescence intensity on corresponding KIR− T cells (CD3^+CD4^+CD28^+ T cells; same 5-azaC treated cultures, SD, n=9): 1394+/−572

C[C@H]1c2cccc(O)c2C(=O)C2=C(O)[C@]3(O)C(=O)C(C(N)=O)=C(O)[C@@H](N(C)C)[C@@H]3[C@@H](O)[C@@H]21 [dox, doxycycline]
KIR expression, % of total CD4+ T cells (CD4^+KIR^+NK1.1^− cells [2]; tet-on mouse with higher KIR expression, FIGS. 3A-B): 3.9% | increase in CD4^+KIR^+NK1.1^− cells (CD4^+KIR^+NK1.1^− cells [2]; transgenic mice receiving dox): 5.7 fold | CD4^+KIRL1^+CD11a^hiCD40L^+ subset, % of total CD11a+ cells [3]: 1.09%

CC(=O)N[C@@H](CS)C(=O)O [N-acetylcysteine]
flare severity [4]: decreases flare severity

From patent US20160272709A1, “ANTI-KIR ANTIBODIES” (The Regents of the University of Michigan, priority 2015, published 2016)
